Reference: patent US20040220260A1, “Use of mono-or di-esters of cinnamic acid or of one of its derivatives and vitamin C, as donor of NO” (L'OREAL S.A., priority 2003, published 2004)

Experiments:
[1] = target: T1, inducible NO synthase (NOS2) (Homo sapiens, UniProt P35228); experiment: screening test of the modulation of induction of NOS2 by normal human keratinocytes (nitrite/nitrate measurement); type: cell-based; conditions: for % inhibition: normal human keratinocytes, NOS2 induced by cytokines, nitrites and nitrates measured
T1 construct: endogenous in cells; host or cells: normal human keratinocytes (primary culture), induced with interferon-γ and interleukin 1-β
Protocol: The activity of ascorbyl 2-O-cinnamate on the inducible NO synthase was evaluated in the assay described by Heck et al. (J.B.C., vol. 267, No. 30, 21277-21280, 25 Oct. 1992), a screening test of the modulation of induction of NOS2 by normal human keratinocytes. The objective of this test is, briefly, to evaluate the concentration of nitrate and nitrite after stimulation of the NO-synthase 2.
The test is carried out on a culture of normal human keratinocytes, derived from samples taken. The induction of the inducible NO synthase (NOS2) was caused by the addition of a combination of several cytokines to the culture medium. The product tested was applied at three concentrations varying from […] to 1000 μM.
The product tested was classed in one of the following two categories: inhibitor (I) or donor (D) of NO (nitric oxide) according to its capacity to diminish or increase, respectively, the quantity of nitrites and nitrates produced compared to the control signal […].
The following controls were introduced in the test:
A: positive control (induction of the enzyme): mixtures of interferon-γ (1000 u/ml) and interleukin 1-β (100 u/ml)
In order to determine the activity of the test product the quantity of stable NO reaction products (nitrites and nitrates) is measured with the aid of the “nitric calorimetric assay” kit sold by the Boehringer company under catalogue number 1756.28.
Ascorbyl 2-O-cinnamate was tested at concentrations of 100 μM, 500 μM and 1000 μM in ethanol

[2] = system: normal human keratinocytes; experiment: cytotoxicity (% diminution of the signal compared with the control); type: cell-based; conditions: % diminution of signal vs control; not very cytotoxic 0-20%, acceptable up to 40%, not retained >40%
Description: Moreover, the cytotoxicity was expressed as % diminution of the signal compared with the control. A product was considered to be not very cytotoxic from 0-20%, acceptable up to 40% and not retained for values >40%.

T1 sequence (P35228 whole entry): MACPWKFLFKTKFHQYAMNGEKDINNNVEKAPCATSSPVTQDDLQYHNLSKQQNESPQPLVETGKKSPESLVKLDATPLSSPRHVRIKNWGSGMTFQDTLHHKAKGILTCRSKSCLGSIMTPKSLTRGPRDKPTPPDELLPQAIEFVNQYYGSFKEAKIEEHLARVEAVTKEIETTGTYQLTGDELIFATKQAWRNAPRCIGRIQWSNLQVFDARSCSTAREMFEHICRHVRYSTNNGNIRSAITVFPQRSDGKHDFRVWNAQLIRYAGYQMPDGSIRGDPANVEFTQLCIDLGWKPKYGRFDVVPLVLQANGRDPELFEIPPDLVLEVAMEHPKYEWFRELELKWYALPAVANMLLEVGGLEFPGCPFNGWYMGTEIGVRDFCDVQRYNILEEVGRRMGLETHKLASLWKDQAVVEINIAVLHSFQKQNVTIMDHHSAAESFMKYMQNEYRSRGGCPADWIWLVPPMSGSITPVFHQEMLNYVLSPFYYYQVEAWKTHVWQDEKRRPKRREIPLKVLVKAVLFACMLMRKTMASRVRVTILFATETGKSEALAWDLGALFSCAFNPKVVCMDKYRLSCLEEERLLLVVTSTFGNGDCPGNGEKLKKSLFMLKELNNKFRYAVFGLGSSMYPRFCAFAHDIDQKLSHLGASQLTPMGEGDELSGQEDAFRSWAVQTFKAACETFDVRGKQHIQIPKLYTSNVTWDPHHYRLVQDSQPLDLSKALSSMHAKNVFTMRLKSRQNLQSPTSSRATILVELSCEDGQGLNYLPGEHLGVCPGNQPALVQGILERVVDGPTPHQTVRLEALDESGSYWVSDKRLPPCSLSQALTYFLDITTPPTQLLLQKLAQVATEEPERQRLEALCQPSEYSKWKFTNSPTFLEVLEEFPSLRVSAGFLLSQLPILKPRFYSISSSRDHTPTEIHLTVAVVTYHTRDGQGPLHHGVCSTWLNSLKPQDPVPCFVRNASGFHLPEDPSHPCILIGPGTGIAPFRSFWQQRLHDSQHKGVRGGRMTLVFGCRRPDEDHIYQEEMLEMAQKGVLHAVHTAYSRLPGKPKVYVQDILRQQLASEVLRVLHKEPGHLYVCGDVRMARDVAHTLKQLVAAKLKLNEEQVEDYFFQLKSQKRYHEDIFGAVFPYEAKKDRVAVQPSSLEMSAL

`O=C(/C=C/c1ccccc1)OC1=C(O)[C@@H]([C@@H](O)CO)OC1=O` [Ascorbyl 2-O-cinnamate, ascorbyl 2-O-cinnamate] was tested, and the “% inhibition” value ([1]; 100 μM in ethanol) was 24.79%, the “% inhibition” value ([1]; 500 μM in ethanol) was 53.74% and the “% inhibition” value ([1]; 1000 μM in ethanol) was 74.4%. The “classification as inhibitor (I) or donor (D) of NO” value ([1]; according to capacity to diminish or increase the quantity of nitrites and nitrates produced compared to the control signal) was “NO donor effect” and the cytotoxicity [2] was “not toxic”.
